According to US8420100B2, “Tumor suppressor activating polypeptides and uses thereof” (Department of Biotechnology, priority 2006, dated 2013):

Legend:
[1] = biological target: T1, p53 (serine-15 phosphorylation) (Homo sapiens, UniProt P04637); assay: Western blotting for total p53 and phospho serine-15 p53 in peptide-treated HEK 293 cells; assay type: cell-based; conditions: HEK 293, TAT-PTD alone 50-100 μM
T1 construct: HEK 293 (p53^+/+) cells; endogenous in cells; host or cells: HEK 293
Procedure: P44 peptide controls the activity of cell cycle regulatory proteins: The minimal dose of P44 peptide that was functionally effective in activating p53 was evaluated by incubating HEK 293 cells with varying concentrations of P44 peptide (1-100 μM) (FIG. 3A) and after 12 h of incubation, protein lysates were prepared and processed for immunoblotting with total p53 (DO-1) and p53 ser-15 phospho-specific antibodies. […] However, there was a 4.5-fold increase in the expression of phosphorylated p53 (pSerine-15 p53) in P44 peptide-treated cells (FIG. 3A, lanes 2-6). To exclude the possibility that p53 activation is an effect of the protein transduction domain of HIV-1 TAT protein, similar set of experiment was performed using TAT-PTD peptide alone (consisting of only the 11-mer TAT-sequence). […] This observation reconfirmed that the RS domain (288-350 aa) of SMAR1 could exclusively activate p53 by mediating its phosphorylation specifically at serine-15 residue. Serine-15 phosphorylation of p53 is associated with its increased transcription efficiency, decreased affinity for MDM2, and its increased nuclear retention. One of the target genes activated by p53 is p21, an inhibitor of a subset of the cyclin-dependent kinases including cdc-2 (Sherr, C. J., and Roberts, J. M. (1999) Genes Dev. 13, 1501-1512). To evaluate the significance of peptide-mediated p53 activation, P44 peptide-treated lysates were further checked for tyrosine 15 phosphorylation of cdc2. […] HEK 293 cells were treated with SM peptide and checked for p53 as well as pcdc-2 levels.
Serine 347 residue of SMAR1: critical for mediating the effects of full-length SMAR1: Once it was established that the serine motif (SSSSYS) plays a pivotal role in SMAR1-mediated p53 activation, it got necessary to identify the serine residue within this motif that might be necessary in mediating these effects. To identify the critical serine residue within P44 peptide, various point-mutant peptides were custom synthesized, that varied with respect to the position of serine residue that was mutated (Table 1). To evaluate the functionality of mutant chimeric TAT-SMAR1 peptides [PS347A, PS348A, PS349A, PS350A and RS mutant (SM)] in comparison to the TAT-SMAR1 WT peptide (P44), HEK 293 cells were treated with 10 μM concentration of either of the peptides and protein lysates were prepared after 12 h incubation period. The lysates were then processed for immunoblotting with pSer-15 p53 and pcdc-2 antibodies. […] However, this was not the case with other mutated peptides. When the alanine was replaced back to serine at the 347 residue (FIG. 4A, lanes 3-5), the functionality of the peptide was restored as observed with increase in pcdc-2 levels. […] However, in case of SM (where serine residues from 347-350 were replaced by alanines) treated cells (FIG. 4A, lane 7), there was no difference in the pSer-15 p53 as well as pcdc-2 levels compared to either untreated or PS347A treated cells (FIG. 4A, lanes 1 and 2, respectively).
FIG. 3. P44 peptide activates p53-mediated cell cycle pathway. A, HEK 293 cells were seeded at a density of 5×10^5 and after 24 h, was incubated with increasing concentrations of the TAT-SMAR1 WT (P44) peptide. Protein lysates were prepared and then immunoblotted with antibodies to total p53, phospho serine-15. B, The same set of experiment was repeated with TAT PTD peptide representing the PTD carrier sequence alone and immunoblotted with phospho serine-15, in comparison of P44 treated cells. C, The status of phospho cdc-2 was further analyzed in P44 peptide treated cells. Total […] was used as an internal control. D, The same set of experiments were again repeated using TAT-SMAR1 RS mutant (SM) peptide and whole cell lysates were probed for phospho p53 serine-15 and pcdc-2 antibodies. […] was used as a loading control.
FIG. 4. Serine 347 residue of SMAR1 mediates p53 activation and stabilization. […]

[2] = system: B16F1 mouse melanoma cells; assay: B16F1 melanoma tumor regression in nude mice; assay type: in vivo; conditions: nude mice, 200 μg/mouse thrice a week, 4 weeks
Procedure: P44 peptide: A potent tumor regressor: To test whether the differences in SMAR1 derived peptide-induced activation of p53 translated to differences in drug sensitivity in vivo, B16F1 mouse melanoma cells were subcutaneously grafted into athymic nude mice, and tumor growth together with therapeutic sensitivity was monitored. Once the tumor nodule was established into the mouse, P44 peptide was injected in the tumor localized areas at a physiological dose of 200 μg/mouse thrice a week. The treatment was continued for 4 weeks. In a parallel experiment, either TAT PTD or TAT-SMAR1 RS mutant peptide, SM (FIGS. 6A and B, respectively) was injected in tumor bearing mice to be used as control.
FIG. 6D-F corresponds to the magnified tumor images of FIG. 6A-C, respectively. […] Thus, P44 peptide mimics the function of full-length SMAR1 in drastically reducing the tumor growth.
FIG. 6. Tumor regression by TAT-SMAR1 WT peptide. A, Nude mice were allowed to develop tumors by subcutaneously injecting B 16F1 mouse melanoma cells. Mice with size-matched tumors were then randomized into three treatment groups (five animals per group); TAT PTD alone (panel A), TAT-SMART RS mutant (SM) (panel B) and TAT-SMAR1 WT (P44) (panel C). Panels D, E and F correspond to the magnified images of panels A, B and C, respectively. Mice were treated with either of the peptides at a dose of 200 μg/mice/thrice a week for consecutive 4 weeks. The tumors were then weighed and plotted for each mouse in all the treatment groups (panel G).
Animal model for tumorgenesis: B16F1 mouse melanoma cells in the exponential growth phase were trypsinized (Invitrogen) and washed twice with PBS. Cell number and viability was assessed and cell cultures with viability >90% were used. Tumors were then established in nude mice by subcutaneous injection of 2×10^6 B16F1 cells. Five mice were used in each set of experiments. The mice were maintained under pathogen-free conditions. When the subcutaneous tumor was clearly visible, the TAT-SMAR1 WT (P44) peptide treatment was started. The P44 peptide was subcutaneously injected proximal to the tumor sites at a dose of 200 μg/mouse thrice a week. The treatment was administered for 4 weeks. For control treatment, TAT PTD alone and TAT SMAR1 RS mutant peptide (SM) were injected in the same manner as the P44 peptide.

[3] = system: tumor vasculature of B16F1-induced tumors; assay: Hematoxylin and eosin histopathology of B16F1-induced tumors; assay type: in vivo, mouse; conditions: tumors excised from treated mice
Excerpt: (§1) Histopathological changes in the subcutaneous tumors: To analyze the tumor vasculature of TAT PTD, SM treated and P44 treated mice, the tumor sections were stained with HE. […] In SM treated tumors, due to compressed vessels, the shape of RBCs were also distorted (FIG. 7A, lower right panel, arrow marked). […] The presence of hypoxic cells is a hallmark of cancer (Brown, J. M., and Wilson, W. R. (2004) Nat. Rev. Cancer 4, 437-447; Minchinton, A. I., and Tannock, I. F. (2006) Nat. Rev. Cancer 6, 583-592). Cellular responses to hypoxia are triggered by the hypoxia inducible factor-1 alpha (HIF-1α) that is known to restore tissue homeostasis in hypoxic conditions (Semenza, G. L. (2000) Genes Dev. 14, 1983-1991). To determine the status of HIF-1α expression, immunohistochemical analysis was performed on tumor sections obtained from SM and P44 treated mice by using antibody against HIF-1 α. […] All these observations implicate the significance of P44 peptide in restoring tissue architecture in tumor cells and thus potentiates its role as a tumor regressor.
(§2) FIG. 7. Histopathological changes in B16F1-induced tumors. A, Hematoxylin and eosin staining of tumor sections excised from mice treated with either P44 (upper panel) or SM (lower panel) peptide. […] The images have been recorded at 20× and 40×. B, Immunohistochemistry of paraffin embedded tumor sections from P44 treated as well as, SM treated mice. After antigen unmasking, sections were stained with HIF-1α antibody (middle panel) and detected using Cy-3 conjugated mouse immunoglobulin. Sections were counterstained with DAP1 for nuclear localization (left panel). Right panel corresponds to the merged image.

[4] = system: HIF-1α; assay: Immunohistochemical staining of tumor sections for HIF-1α; assay type: in vivo, mouse; conditions: tumors excised from treated mice
Excerpt: as §1, §2
Immunohistochemical staining of tumor sections: Tumor sections in paraffin-embedded blocks were transferred to poly-L-lysine coated glass slides and air-dried overnight at 37° C. They were dewaxed in xylene (three changes) and […] in graded series of decreasing ethanol concentrations. […] Thereafter, detected using cy-3 fluorescence labeled secondary antibody. […]

T1 sequence (P04637 whole entry): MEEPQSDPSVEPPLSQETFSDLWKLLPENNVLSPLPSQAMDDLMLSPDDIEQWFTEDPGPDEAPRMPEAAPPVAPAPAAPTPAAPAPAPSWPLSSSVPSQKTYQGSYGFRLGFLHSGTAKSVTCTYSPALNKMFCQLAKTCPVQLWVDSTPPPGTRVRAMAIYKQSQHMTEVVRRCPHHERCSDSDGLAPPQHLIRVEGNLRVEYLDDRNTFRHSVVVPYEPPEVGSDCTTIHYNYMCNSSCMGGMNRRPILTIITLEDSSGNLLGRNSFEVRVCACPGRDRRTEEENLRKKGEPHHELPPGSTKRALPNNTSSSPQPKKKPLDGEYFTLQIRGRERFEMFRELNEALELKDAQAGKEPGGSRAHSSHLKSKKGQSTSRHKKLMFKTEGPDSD

Sequence: YGRKKRRQRRR [TAT PTD, reference compound]
- phosphorylation of serine-15 residue of p53 [1]: no phosphorylation
- tumor weight after excision [2]: 1.5 to 3 g
- tumor vascular architecture (HE staining) [3]: poorly organized vascular architecture and compressed blood vessels
- HIF-1α expression in tumor sections [4]: increased expression of HIF-1α
